Data on two compounds can be found in paper PMC4690121, “Interaction of Citrinin with Human Serum Albumin” (Toxins, 2015).

In data set [1] the target is T1, human serum albumin (HSA) (Homo sapiens, UniProt P02768). The data set can be described thus: Steady-state fluorescence displacement of warfarin from HSA by CIT. It is filed as binding. Set-up: purchased Sigma-Aldrich. Particulars: warfarin 1 μM, HSA 3.5 μM, CIT 0.25–5.0 μM.
Data set [2] concerns the target T1, human serum albumin (HSA). The data set can be described thus: Fluorescence quenching of albumin by CIT, binding constant and van't Hoff thermodynamics. Set-up: purchased Sigma-Aldrich. The procedure:
(§1) A Fluorolog τ3 spectrofluorometric system (Jobin-Yvon/SPEX) and Hitachi F-4500 fluorescence spectrophotometer were used for steady-state fluorescence and fluorescence polarization measurements. All analyses were performed at +25 °C except thermodynamic studies.
Binding constants (K) were determined using fluorescence quenching method, where increasing CIT concentrations (0–5 μM) were added to standard amount of albumin (2 μM). […] Similarly to our previous studies, K values of CIT-albumin complexes were quantified by non-linear fitting with Hyperquad2006 program package (Protonic Software) assuming 1:1 stoichiometry: (1) I=I0+IAC−I0/2[A]0([A]0+[C]0+1/K−([A]0+[C]0+1/K)^2−4[A]0[C]0) where I denotes the fluorescence emission intensity of albumin in presence of CIT; I0 denotes the fluorescence emission intensity of albumin in absence of CIT; IAC denotes the fluorescence emission intensity of pure albumin-CIT complex (which is calculated by the Hyperquad2006 software); K denotes the binding constant; while [A]0 and [C]0 denote the total concentrations of albumin and CIT, respectively.
To get deeper insight into the formation of CIT-HSA complex, quenching experiments were also performed at different temperatures (25, 30, 35, and 40 °C). Thermodynamic parameters were quantified applying the van’t Hoff equation: (2) lnK=−ΔG/RT=−ΔH/RT+ΔS/R where ΔG is the Gibbs free energy change, ΔS is the entropy change, while ΔH is the enthalpy change associated with the complex formation.

Another data set concerns the target T2, rat serum albumin (RSA) (Rattus norvegicus, UniProt P02770).
T2 construct: purchased Sigma-Aldrich
The data set can be described thus: Fluorescence quenching of albumin by CIT, binding constant. Particulars: PBS pH 7.4, 25 °C; read-out: logK (±SD) of CIT-RSA complex (converted). The procedure: as §1
(§2) Binding constants (K) were determined using fluorescence quenching method, where increasing CIT concentrations (0–5 μM) were added to standard amount of albumin (2 μM). Fluorescence emission spectra were recorded in PBS buffer (pH 7.4; λexc = 280 nm). Similarly to our previous studies, K values of CIT-albumin complexes were quantified by non-linear fitting with Hyperquad2006 program package (Protonic Software) assuming 1:1 stoichiometry: (1) I=I0+IAC−I0/2[A]0([A]0+[C]0+1/K−([A]0+[C]0+1/K)^2−4[A]0[C]0) where I denotes the fluorescence emission intensity of albumin in presence of CIT; I0 denotes the fluorescence emission intensity of albumin in absence of CIT; IAC denotes the fluorescence emission intensity of pure albumin-CIT complex (which is calculated by the Hyperquad2006 software); K denotes the binding constant; while [A]0 and [C]0 denote the total concentrations of albumin and CIT, respectively.

Data set [3] addresses T3, porcine serum albumin (PSA) (Sus scrofa, UniProt P08835).
T3 construct: purchased Sigma-Aldrich
The data set is described as above. Particulars: PBS pH 7.4, 25 °C; read-out: logK (±SD) of CIT-PSA complex (converted). The procedure:
as §1, §2

Data set [4] has as its target T4, bovine serum albumin (BSA) (Bos taurus, UniProt P02769).
T4 construct: purchased Sigma-Aldrich
The description is as above. Particulars: PBS pH 7.4, 25 °C; read-out: logK (±SD) of CIT-BSA complex (converted). The procedure:
as §1, §2

Data set [5] addresses T1, human serum albumin (HSA). In words: Fluorescence polarization displacement of OTA from HSA. It is filed as binding. On the set-up: purchased Sigma-Aldrich. Particulars: OTA 1 μM, HSA 1.4 μM, competitor 1–30 μM. On the technique in general: Fluorescence polarisation rises when a labelled molecule tumbles more slowly, as on binding a larger partner.
A further data set has as its system MDCK cells. In words: MDCK cell viability (calcein acetoxymethyl ester). Type of data set: cell-based. Particulars: 24 h. The procedure:
MDCK (immortalized, epithelial-kidney, ATCC: CCL 34) cells were cultured in DMEM containing FBS (10%), penicillin (100 U/mL) and streptomycin (100 μg/mL), in 25 cm^2 sterile plastic flasks (VWR) and in 24-well sterile plastic plates (VWR). In order to test the effect of CIT on cell viability in absence and presence of albumin, cell media with and without 10% FBS or 40 g/L HSA were also prepared. After 24-h treatment of MDCK cells (in 24-well plates) with CIT (0–100 μM) in absence and presence of FBS (10%) or HSA (40 g/L), cells were washed three times with 500 μL PBS. Then PBS was replaced with 500 µL Hanks + glucose buffer containing 1.6 µM calcein acetoxymethyl ester and cells were incubated for 40 min at 37 °C in the dark. Thereafter, wells were washed again with 500 μL ice-cold PBS and the emptied wells were filled with 500 μL of 5% perchloric acid (PCA) after which cells were incubated for 15 min at room temperature. 20 μL PCA extract was added to 180 μL of 1 M NaOH using black 96-well optical plates (VWR) for fluorescence measurement of the formed calcein (λexc = 490 nm, λem = 520 nm). Fluorescence intensities were measured with a microplate reader (Perkin Elmer EnSpire Multimode reader).

Data set [6] addresses T1, human serum albumin (HSA). The procedure: Before ultrafiltration samples contained 1 μM CIT with or without HSA (1, 2.5 or 5 μM), while displacement of CIT by WAR (5 and 10 μM) or OTA (2.5 and 5 μM) was investigated in the presence of 1 μM CIT and 5 μM HSA. During ultrafiltration experiments Amicon Ultra-4 centrifugal filter units (with 10 kDa molecular weight cut-off value; from Merck Millipore, Darmstadt, Germany) were applied. In order to remove glycerol from the filters, filter units were washed with 3 mL water and 3 mL PBS. Thereafter, 2.5 mL of the samples were transferred into the filter and Amicon tubes were centrifuged at 7500 g for 10 min at 25 °C (in Hettich Universal 32R centrifuge with fixed-angle rotor). Then 2 mL quantity of filtrate was transferred into 5-mL Eppendorf tube, after which 10 μL 6 M HCl solution was added to the sample in order to adjust the pH (to approximately 2). […] Final CIT concentrations were determined (applying calibration curve at concentration range 0.1–2.0 μM) by Hitachi F-4500 fluorescence spectrophotometer with the measurement of the fluorescence signal of CIT itself, using 330 nm and 500 nm as excitation and emission wavelengths, respectively.

Data set [7] deals with T1, human serum albumin (HSA). Particulars: cited from earlier work.
Setting [8] is: van't Hoff, 25-40 °C quenching data.

Like-named read-outs stand apart in the source and are kept apart here.

T1 sequence (P02768 25-609): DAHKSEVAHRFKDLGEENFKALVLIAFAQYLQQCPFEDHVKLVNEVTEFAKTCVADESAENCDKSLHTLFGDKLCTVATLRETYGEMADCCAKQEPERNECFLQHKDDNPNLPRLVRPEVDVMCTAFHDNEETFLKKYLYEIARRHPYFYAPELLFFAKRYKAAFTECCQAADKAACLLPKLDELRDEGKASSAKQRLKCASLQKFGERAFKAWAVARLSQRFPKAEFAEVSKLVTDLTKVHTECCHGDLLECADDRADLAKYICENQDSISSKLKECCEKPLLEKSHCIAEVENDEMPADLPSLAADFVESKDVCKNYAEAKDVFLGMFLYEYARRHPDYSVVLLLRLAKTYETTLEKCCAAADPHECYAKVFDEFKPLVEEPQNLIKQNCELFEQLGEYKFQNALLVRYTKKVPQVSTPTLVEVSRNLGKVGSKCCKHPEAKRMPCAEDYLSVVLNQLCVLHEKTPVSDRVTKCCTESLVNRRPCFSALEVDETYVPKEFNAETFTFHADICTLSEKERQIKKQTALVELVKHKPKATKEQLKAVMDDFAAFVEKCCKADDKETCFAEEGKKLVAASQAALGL
T2 sequence (P02770 25-608): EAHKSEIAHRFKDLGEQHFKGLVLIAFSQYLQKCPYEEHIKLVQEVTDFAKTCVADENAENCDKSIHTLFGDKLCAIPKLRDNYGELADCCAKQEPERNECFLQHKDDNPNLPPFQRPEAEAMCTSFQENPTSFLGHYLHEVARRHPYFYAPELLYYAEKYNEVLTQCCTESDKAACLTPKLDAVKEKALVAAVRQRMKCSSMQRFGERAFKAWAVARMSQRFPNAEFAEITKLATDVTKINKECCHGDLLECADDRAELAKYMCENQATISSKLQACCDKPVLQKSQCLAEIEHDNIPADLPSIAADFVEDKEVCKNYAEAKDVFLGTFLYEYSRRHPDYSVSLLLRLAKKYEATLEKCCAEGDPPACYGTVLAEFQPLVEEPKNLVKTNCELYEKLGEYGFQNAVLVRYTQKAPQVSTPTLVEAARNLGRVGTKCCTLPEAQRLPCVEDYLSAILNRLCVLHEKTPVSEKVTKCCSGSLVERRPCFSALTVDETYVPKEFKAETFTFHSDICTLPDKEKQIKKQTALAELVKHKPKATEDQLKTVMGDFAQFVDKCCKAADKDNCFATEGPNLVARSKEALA
T4 sequence (P02769 25-607): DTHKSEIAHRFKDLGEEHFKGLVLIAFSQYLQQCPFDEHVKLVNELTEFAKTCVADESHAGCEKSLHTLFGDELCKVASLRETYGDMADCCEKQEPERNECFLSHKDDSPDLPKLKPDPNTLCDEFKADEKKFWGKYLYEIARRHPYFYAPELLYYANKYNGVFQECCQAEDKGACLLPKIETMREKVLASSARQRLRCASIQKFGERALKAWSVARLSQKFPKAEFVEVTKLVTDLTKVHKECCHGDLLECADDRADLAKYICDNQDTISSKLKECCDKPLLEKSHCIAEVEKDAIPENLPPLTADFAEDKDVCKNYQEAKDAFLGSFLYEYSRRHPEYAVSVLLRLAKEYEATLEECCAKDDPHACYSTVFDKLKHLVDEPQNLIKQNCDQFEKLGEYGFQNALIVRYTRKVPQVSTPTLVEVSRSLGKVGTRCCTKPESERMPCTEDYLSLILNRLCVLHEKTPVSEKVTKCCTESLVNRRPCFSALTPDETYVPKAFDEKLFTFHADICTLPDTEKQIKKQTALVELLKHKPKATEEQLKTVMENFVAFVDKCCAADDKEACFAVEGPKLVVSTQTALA
T3 sequence (P08835 25-607): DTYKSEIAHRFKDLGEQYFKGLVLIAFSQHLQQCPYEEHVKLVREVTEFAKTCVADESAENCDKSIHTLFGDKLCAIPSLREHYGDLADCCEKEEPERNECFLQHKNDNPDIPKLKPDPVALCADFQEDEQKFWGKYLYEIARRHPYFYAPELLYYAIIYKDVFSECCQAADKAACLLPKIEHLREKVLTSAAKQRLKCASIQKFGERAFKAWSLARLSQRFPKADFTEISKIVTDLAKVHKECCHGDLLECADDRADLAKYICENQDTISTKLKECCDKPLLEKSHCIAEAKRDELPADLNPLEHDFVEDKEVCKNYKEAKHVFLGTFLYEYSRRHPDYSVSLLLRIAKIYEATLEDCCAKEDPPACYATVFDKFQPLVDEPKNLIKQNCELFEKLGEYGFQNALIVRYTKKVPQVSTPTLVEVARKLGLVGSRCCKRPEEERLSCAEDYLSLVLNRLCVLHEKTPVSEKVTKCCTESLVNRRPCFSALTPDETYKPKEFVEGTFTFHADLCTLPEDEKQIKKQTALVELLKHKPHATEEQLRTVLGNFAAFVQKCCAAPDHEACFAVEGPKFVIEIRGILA

Take `CC1=C2C(=CO[C@H](C)[C@H]2C)C(O)=C(C(=O)O)C1=O` [CIT, Citrinin]: the “fluorescence intensity of HSA-bound warfarin (displacement of warfarin)” value in data set [1] is listed as “significant decrease”. The Kd in [2] (PBS pH 6.0, 25 °C, read-out: logK of CIT-HSA complex (converted)) was 5.62 µM; in data set [2] (PBS pH 7.0, 25 °C, read-out: logK of CIT-HSA complex (converted)), 5.25 µM; in data set [2] (PBS pH 7.4, 25 °C, read-out: logK (±SD) of CIT-HSA complex (converted)), 4.79 µM; in data set [2] (PBS pH 7.4, 30 °C, read-out: logK (±SD) of CIT-HSA complex (converted)), 5.5 µM; in data set [2] (PBS pH 7.4, 35 °C, read-out: logK (±SD) of CIT-HSA complex (converted)), 6.46 µM; in data set [2] (PBS pH 7.4, 40 °C, read-out: logK (±SD) of CIT-HSA complex (converted)) it was 7.76 µM. Further, the Kd in data set [2] (PBS pH 7.8, 25 °C, read-out: logK of CIT-HSA complex (converted)) was 7.59 µM; on rat serum albumin (RSA), 3.16 µM; in data set [3], 11 µM; in data set [4], 8.91 µM. For the same compound, the “∆H of CIT-HSA complex formation” value in data set [2] (setting [8]) was -5.772 kcal/mol. The “∆S of CIT-HSA complex formation” value in data set [2] (setting [8]) was “+20.90 J·mol^−1·K^−1”. The “fluorescence polarization of OTA (displacement of OTA)” value in data set [5] is recorded as “decrease of fluorescence polarization of OTA in a concentration dependent fashion”. Further, the “CIT-induced viability loss in presence of FBS” value with MDCK cells (100 μM CIT + 10% FBS) was “considerably alleviated”. Further, in the data set with MDCK cells (100 μM CIT + 40 g/L HSA), the “CIT-induced viability loss in presence of HSA” value is “considerably alleviated”. The “decrease of cell viability” value in the data set on MDCK cells (100 μM CIT, absence of FBS) is given as “approximately 50%”. For the same compound, the “CIT in the filtrate in presence of HSA” value in data set [6] (1 μM CIT, HSA 1, 2.5 and 5 μM, 10 kDa cut-off) is “significant decrease”.
In the case of `C[C@@H]1Cc2c(Cl)cc(C(=O)N[C@@H](Cc3ccccc3)C(=O)O)c(O)c2C(=O)O1` [OTA, ochratoxin A], the “logK of OTA-HSA complex” value in data set [7] (25 °C) is 7.4–7.6. In addition, the “complex stability with HSA compared to BSA” value in data set [7] (HSA vs BSA) was 15 fold. Also, in data set [7] (HSA vs RSA), the “complex stability with HSA compared to RSA” value is given as 30 fold. Further, the “displacement of CIT from HSA” value in [6] (1 μM CIT + 5 μM HSA, 5 μM OTA) is “almost complete displacement”. For the same compound, the “change of CIT concentration in the filtrate caused by the competitor” value in data set [6] (1 μM CIT + 5 μM HSA, warfarin or ibuprofen 5 or 10 μM, OTA 2.5 and 5 μM) is listed as “significant elevation”.
